{"source": "paper PMC4657054", "about": "“First Structural View of a Peptide Interacting with the Nucleotide Binding Domain of Heat Shock Protein 90” (Scientific Reports, 2015)", "molecules": {"B1": {"name": "heptapeptide Gly-Arg-Asp-Leu-Tyr-Asp-Asp (peptide)", "peptide": "GRDLYDD", "notes": "numbered from -14 to -8 starting from Gly; No peptide was added for the crystal; also called GRDLYDD; the peptide; source: for the ATPase assay: synthetic peptide, bought: Custom peptide synthesis, USV Limited, Mumbai"}}, "key": {"[1]": {"biological_target": "T1, HspD (Hsp90 of Dictyostelium discoideum) (Dictyostelium discoideum, UniProt P54651)", "T1 construct": "We had earlier reported the activity studies of the full length protein; hexahistidine tag (N); pRSET A vector linker containing Gly-Arg-Asp-Leu-Tyr-Asp-Asp (N); made in house; host or cells: E. coli Rosetta", "T1 sequence (P54651 whole entry)": "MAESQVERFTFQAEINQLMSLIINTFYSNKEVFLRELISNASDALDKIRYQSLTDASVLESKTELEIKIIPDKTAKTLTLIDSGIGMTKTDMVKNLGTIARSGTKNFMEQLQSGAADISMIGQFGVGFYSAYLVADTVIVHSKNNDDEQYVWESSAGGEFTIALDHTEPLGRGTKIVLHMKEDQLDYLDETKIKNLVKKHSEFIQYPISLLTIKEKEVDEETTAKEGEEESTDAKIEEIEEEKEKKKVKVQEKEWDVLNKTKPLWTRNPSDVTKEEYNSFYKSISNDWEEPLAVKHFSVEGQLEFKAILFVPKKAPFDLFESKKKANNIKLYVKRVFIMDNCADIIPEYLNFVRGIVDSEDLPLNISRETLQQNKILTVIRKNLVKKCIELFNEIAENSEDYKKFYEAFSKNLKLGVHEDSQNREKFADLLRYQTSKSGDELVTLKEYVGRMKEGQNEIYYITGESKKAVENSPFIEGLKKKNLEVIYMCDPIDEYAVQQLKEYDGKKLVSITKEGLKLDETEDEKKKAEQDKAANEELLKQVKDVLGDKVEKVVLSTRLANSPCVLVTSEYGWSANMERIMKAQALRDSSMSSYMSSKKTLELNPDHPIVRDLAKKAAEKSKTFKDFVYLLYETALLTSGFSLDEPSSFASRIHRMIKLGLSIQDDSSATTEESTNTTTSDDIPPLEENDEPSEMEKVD", "assay": "ATPase activity of HspD (pRSET A construct) in presence of peptide", "type": "biochemical", "conditions": "for inhibition of ATPase activity of HspD: pre-incubation 0.5 h room temperature, reaction 37 °C 1 h", "protocol": "ATPase assay for HspD was carried out in presence of varying concentrations of the peptide and fixed ATP concentration of 500 μM. In presence of the peptide, there is a significant dose dependent inhibition of ATPase activity of HspD, starting from 5 mM concentration of the peptide (Fig. 5a).\n(§1) The genes for HspD and HspD-NTD were cloned into pRSET A vector, using the following primers: 5′ […] 3′ as forward primer and 5′ […] 3′ as reverse primer for HspD as described previously, and 5′ […] 3′ as forward primer and 5′[…] 3′ as reverse primer for HspD-NTD, containing BamHI and XhoI sites (underlined) in forward and reverse primers, respectively. The proteins, HspD and HspD-NTD, were expressed as hexa histidine tagged fusion proteins in E. coli Rosetta strain. The cells were grown in Terrific broth and induced with 1 mM isopropyl β-D-1-thiogalactopyranoside at 15 °C for 15 hours. The proteins were purified by nickel-NTA affinity chromatography. The column was washed with imidazole gradient ranging from 5 mM to 30 mM in 50 mM Tris, pH 7.5, 500 mM NaCl, buffer. The proteins were finally eluted with 300 mM imidazole, followed by gel filtration with Sephacryl S-200 HR column and stored in 25 mM Tris and 200 mM NaCl, pH 7.5 buffer. The clone for human Hsp90 in pRSET A vector was expressed in E. coli Rosetta strain, and the protein was purified to homogeneity by nickel-NTA affinity chromatography, as described previously[31] and dialysed to exchange buffer containing 40 mM Tris-Cl, pH 7.5, 100 mM KCl and 5 mM MgCl2 for the ATPase assay. For the new construct the gene for HspD and HspD-NTD were cloned in pET-28a vector, which lacks the bound peptide sequence. The proteins were expressed and purified using the same protocol as described above.\nIn order to check the effect of the peptide binding on the ATPase activity of HspD and human Hsp90, purified proteins (2 μM) were incubated with varying peptide concentrations in 40 mM Tris–Cl buffer, pH 7.4, containing 100 mM KCl and 5 mM MgCl2, at room temperature for half hour. ATPase reaction was carried out in the presence of fixed ATP concentration of 500 μM at 37 °C for one hour. γ-^32P-ATP with a specific activity of 0.55 Ci/mmol was used as a tracer. ATP hydrolysis was monitored on a PEI- cellulose TLC plate. Fractional cleavage of ATP was calculated for each peptide concentration. ATPase activity of Hsp90 alone was considered 100%, and percent change in ATPase activity was plotted against peptide concentration."}, "[2]": {"biological_target": "T2, HspD, new construct (pET-28a) (Dictyostelium discoideum, UniProt P54651)", "T2 construct": "made in house; host or cells: E. coli Rosetta (same protocol)", "T2 sequence (P54651 whole entry)": "as above", "assay": "ATPase activity of new construct of HspD (pET-28a, lacking the linker peptide sequence) in presence of peptide", "type": "biochemical", "conditions": "13.5 mM peptide (highest concentration), pET-28a construct, 500 μM ATP, mean ± SEM, n = 2", "protocol": "Bio-Layer Interferometry experiments were carried out to check the binding of the peptide RELWDD. […] The peptide can be further modified to improve the binding efficacy, thereby reducing the inhibitory concentration required to inhibit Hsp90 function.\nThe genes for HspD and HspD-NTD were cloned into pRSET A vector, using the following primers: 5′ […] 3′ as forward primer and 5′ […] 3′ as reverse primer for HspD as described previously, and 5′ […] 3′ as forward primer and 5′[…] 3′ as reverse primer for HspD-NTD, containing BamHI and XhoI sites (underlined) in forward and reverse primers, respectively. The proteins, HspD and HspD-NTD, were expressed as hexa histidine tagged fusion proteins in E. coli Rosetta strain. The cells were grown in Terrific broth and induced with 1 mM isopropyl β-D-1-thiogalactopyranoside at 15 °C for 15 hours. The proteins were purified by nickel-NTA affinity chromatography. […]\n(§2) In order to check the effect of the peptide binding on the ATPase activity of HspD and human Hsp90, purified proteins (2 μM) were incubated with varying peptide concentrations in 40 mM Tris–Cl buffer, pH 7.4, containing 100 mM KCl and 5 mM MgCl2, at room temperature for half hour. […] ATP hydrolysis was monitored on a PEI- cellulose TLC plate. Fractional cleavage of ATP was calculated for each peptide concentration. […]"}, "[3]": {"biological_target": "T3, HspD-NTD (pET-28a construct lacking the linker peptide) (Dictyostelium discoideum, UniProt P54651)", "T3 construct": "the crystal structure of the N-terminal domain of HspD (HspD-NTD); made in house; host or cells: E. coli Rosetta (same protocol)", "T3 sequence (P54651 1-225 limits assumed)": "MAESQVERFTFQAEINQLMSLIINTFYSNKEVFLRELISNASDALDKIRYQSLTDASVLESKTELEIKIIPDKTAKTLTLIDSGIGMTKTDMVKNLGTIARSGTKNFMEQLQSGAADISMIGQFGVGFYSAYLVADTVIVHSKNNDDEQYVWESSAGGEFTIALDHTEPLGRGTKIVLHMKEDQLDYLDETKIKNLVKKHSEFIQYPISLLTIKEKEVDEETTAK", "assay": "biochemical", "type": "binding", "protocol": "The binding of the peptide RELWDD to HspD-NTD construct lacking the linker peptide was measured by Bio-Layer Interferometry using an Octet RED96 instrument (ForteBio, Inc.). The peptide was immobilized onto Amine Reactive Second-Generation (AR2G) Biosensors. Binding studies were performed by dipping the biosensors in varying concentrations of HspD-NTD. An equal number of unliganded sensors was used as control, to account for non-specific binding. The traces were processed using ForteBio Data Analysis Software, ver. 8.0.3.5, exported and fit globally using Biaevaluation 3.0.1. A simple 1:1 Langmuir interaction model was used for fitting the data.\nFigure S1. Binding of HspD-NTD to the peptide RELWDD using Bio-layer Interferometry.\nconcentrations of the protein.\n(1 picture or pasted object on this page, not shown here)"}, "human Hsp90 [4]": {"biological_target": "T4, human Hsp90 (Homo sapiens, UniProt P07900)", "assay": "ATPase activity of human Hsp90 in presence of peptide", "type": "biochemical", "set-up": "made in house; host or cells: E. coli Rosetta", "conditions": "human Hsp90 2 μM, 500 μM ATP", "protocol": "Lys47 of HspD-NTD is observed to be in a different rotamer conformation as compared to Lys58 of the human isoform, due to the former’s interaction with the residues of the peptide. Lys58 of the human Hsp90 is likely to adopt a similar conformation in the presence of a similar peptide. The water molecules interacting with Asn40 and Asp82 in the case of HspD-NTD are also found to be conserved in human Hsp90-NTD structure. […] In order to validate this, ATPase assay was performed for human Hsp90 in the presence of the modified peptide. […] This observation that the peptide binds to the NTD and inhibits its ATPase activity paves way for the development of new class of peptide-based inhibitors for Hsp90.\nas §1, with “The clone for human Hsp90 in pRSET A vector was expressed in E. coli Rosetta strain, and the protein was purified to homogeneity by nickel-NTA affinity chromatography, as described previously[31] and dialysed to exchange buffer containing 40 mM Tris-Cl, pH 7.5, 100 mM KCl and 5 mM MgCl2 for the ATPase assay. For the new construct the gene for HspD and HspD-NTD were cloned in pET-28a vector, which lacks the bound peptide sequence. The proteins were expressed and purified using the same protocol as described above.” left out\nas §2"}, "[5]": {"biological_target": "T5, N-terminal domain of Hsp90 of Dictyostelium discoideum (HspD-NTD), pRSET A construct (Dictyostelium discoideum, UniProt P54651 1-225)", "T5 construct": "'a total of 225 residues', the first 214 seen in the density; forward primer starts at the ATG of the gene, reverse primer encodes ...ETTAK-stop; Expressed from pRSET A with a vector stretch (holding GRDLYDD) between the N-terminal hexahistidine tag and the NTD; source: E. coli Rosetta, purified (nickel-NTA, gel filtration on Sephacryl S-200 HR)", "T5 sequence (P54651 1-225)": "as the sequence (P54651 1-225 limits assumed) above", "assay": "crystal structure; hanging drop, 15 mg/mL HspD-NTD, 0.1 M HEPES pH 7.0-8.0, 10-30% PEG3350; no peptide added, the peptide comes from the vector stretch of the fusion protein; 1.2 Å", "conditions": "both partners purified"}, "[6]": {"biological_target": "Hsp90 of Dictyostelium discoideum (HspD), full length, pRSET A construct (Dictyostelium discoideum) (UniProt P54651)", "sequence (P54651 whole entry)": "as the sequence (P54651 whole entry) above"}, "human Hsp90 [7]": {"biological_target": "T4, human Hsp90"}, "[8]": {"biological_target": "new construct of HspD, full length, in pET-28a (Dictyostelium discoideum) (UniProt P54651)", "sequence (P54651 whole entry)": "as above"}}, "note": "Residues, ends and D or L forms follow the SMILES beside them. No end group written: not given here.", "data": [{"molecule": "CC(C)C[C@H](NC(=O)[C@H](CCC(=O)O)NC(=O)[C@@H](N)CCCNC(=N)N)C(=O)N[C@@H](Cc1c[nH]c2ccccc12)C(=O)N[C@@H](CC(=O)O)C(=O)N[C@@H](CC(=O)O)C(=O)O", "note": "[RELWDD, Arg-Glu-Leu-Trp-Asp-Asp] (H-RELWDD-OH)", "values": [{"measurement": "inhibition of ATPase activity of HspD", "setting": "[1]; 10 mM peptide, HspD 2 μM, 500 μM ATP", "result": 30, "unit": "%"}, {"measurement": "ATPase activity of HspD observed (Hsp90 alone = 100%)", "setting": "[1]; 13.5 mM peptide (highest concentration), HspD 2 μM, 500 μM ATP, mean ± SEM, n = 5, SEM", "result": "38.50 ± 10.11", "unit": "%"}, {"measurement": "inhibition of ATPase activity of HspD", "setting": "[1]; 13.5 mM peptide, HspD 2 μM, 500 μM ATP", "result": 60, "unit": "%"}, {"measurement": "ATPase activity of new construct of HspD observed (Hsp90 alone = 100%)", "setting": "[2]", "result": "50.60 ± 4.68", "unit": "%"}, {"measurement": "KD of binding to HspD-NTD, in words", "setting": "[3]", "result": "lower micromolar range"}, {"measurement": "kon", "setting": "[3]; Bio-Layer Interferometry, peptide immobilized on AR2G biosensors, 1:1 Langmuir model, global fit, mean ± standard deviation, SD", "result": "90.6 ± 46.6", "unit": "M⁻¹ s⁻¹"}, {"measurement": "Kd", "setting": "[3]; SD", "result": "28.2 ± 14.6", "unit": "µM"}, {"measurement": "inhibition of ATPase activity of human Hsp90", "setting": "human Hsp90 [4]; 5 mM peptide", "result": 30, "unit": "%"}, {"measurement": "inhibition of ATPase activity of human Hsp90", "setting": "human Hsp90 [4]; 10 mM peptide", "result": 55, "unit": "%"}, {"measurement": "ATPase activity of human Hsp90 remaining (Hsp90 alone = 100%)", "setting": "human Hsp90 [4]; 10 mM peptide, mean ± SEM, n = 2, SEM", "result": "46.91 ± 12.05", "unit": "%"}]}, {"molecule": "GRDLYDD [GRDLYDD, purchased synthetic peptide]", "values": [{"measurement": "change in ATPase activity of HspD in the presence of the peptide", "setting": "[1]; 100 μM-13.5 mM peptide, HspD 2 μM, 500 μM ATP, 37 °C, 1 h, γ-32P-ATP, TLC", "result": "no significant change"}, {"measurement": "ATPase inhibition of HspD, in words", "setting": "[1]; summary statement", "result": "no inhibition whatsoever"}]}, {"molecule": "B1", "values": [{"measurement": "binding result", "setting": "[5]", "result": "binds"}]}, {"molecule": "RELWDD (not fully specified)", "note": "[modified hexapeptide Arg-Glu-Leu-Trp-Asp-Asp]", "values": [{"measurement": "percent inhibition of ATPase activity of HspD (2 μM, 500 μM ATP) with rising peptide RELWDD, inhibition from 5 mM, 30% at 10 mM, highest at 13.5 mM", "setting": "[6]", "result": 60, "unit": "%"}, {"measurement": "percent inhibition of ATPase activity of human Hsp90 (2 μM) with rising peptide RELWDD, 30% at 5 mM, highest at 10 mM", "setting": "human Hsp90 [7]", "result": 55, "unit": "%"}, {"measurement": "percent ATPase activity left of the new construct of HspD (pET-28a) with rising peptide RELWDD, at the highest concentration of 13.5 mM", "setting": "[8]", "result": 50.6, "unit": "%"}]}]}
